Consider 16 compounds from patent publication US9670227B2, “Thienopyrimidine derivatives, a process for their preparation and pharmaceutical compositions containing them” (LES LABORATOIRES SERVIER, priority 2013, dated 2017).

In one test the target is Mcl-1 protein (UniProtKB primary accession number: Q07820) (Homo sapiens, UniProt Q07820). Description: Inhibition of Mcl-1 by fluorescence polarisation, Method 1. Format: binding. The conditions noted are these: read-out: IC50 (M) Mcl-1 FP. The method, boiled down:
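Compounds were tested as 11-point serial dilutions at 5% final DMSO against 5 nM Mcl-1 with 1 nM fluorescein-labelled ligand in 10 mM HEPES, 150 mM NaCl, 0.05% Tween 20, pH 7.4. Relative binding potency was read by fluorescence polarisation.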

For test [1], the system named is H929 multiple myeloma tumour line. The experiment in a line: In vitro cytotoxicity, Microculture Tetrazolium Assay. The conditions noted are these: Homo sapiens, NCI-H929, 48 h, H929 cells, 48 hours exposure, read-out: IC50 (μM) MTT H929. Format: cell-based. Here is the method:
The cytotoxicity studies were carried out on the H929 multiple myeloma tumour line.
The cells are distributed onto microplates and exposed to the test compounds for 48 hours.

[2] abbreviates: fluorescence polarisation, Method 1, or Method 2.
Where [3] appears, read: fluorescence polarisation test, Method 1, or Method 2 where the value is underlined (underlining not visible).

Where two headings read alike, the source gives them in different places.

Chain of Mcl-1 protein (Q07820 whole entry): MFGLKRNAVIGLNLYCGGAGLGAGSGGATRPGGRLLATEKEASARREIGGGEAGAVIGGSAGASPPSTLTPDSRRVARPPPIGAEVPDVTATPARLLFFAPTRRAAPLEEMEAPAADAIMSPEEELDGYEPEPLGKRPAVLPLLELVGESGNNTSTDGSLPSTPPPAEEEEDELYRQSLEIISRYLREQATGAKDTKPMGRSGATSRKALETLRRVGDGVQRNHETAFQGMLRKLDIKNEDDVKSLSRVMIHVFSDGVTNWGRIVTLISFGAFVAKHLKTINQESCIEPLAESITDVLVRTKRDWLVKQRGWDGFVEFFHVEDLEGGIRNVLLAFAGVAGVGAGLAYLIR

With `COc1ccc(COc2ccc(-c3sc4ncnc(OC(Cc5ccccc5OCc5ccnc(-c6ccccc6OC)n5)C(=O)O)c4c3-c3ccc(OCCN4CCN(C)CC4)c(Cl)c3C)cc2)cc1` [Example 770, (2R)-2-[((5Sa)-5-{3-chloro-2-methyl-4-[2-(4-methylpiperazin-1-yl)ethoxy]phenyl}-6-{4-[(4-methoxybenzyl)oxy]phenyl}thieno[2,3-d]pyrimidin-4-yl)oxy]-3-(2-{[2-(2-methoxyphenyl)pyrimidin-4-yl]methoxy}phenyl)propanoic acid], the IC50 (commonly the concentration that inhibits the measured activity by half) turned out to be 1.01e-09 M on Mcl-1 protein (setting [2]) and 0.01 µM in test [1] (MTT).

With `COc1ccccc1-c1nccc(COc2ccccc2CC(Oc2ncnc3sc(-c4ccc(OCc5ccnn5C)cc4)c(-c4ccc(OCCN5CCN(C)CC5)c(Cl)c4C)c23)C(=O)O)n1` [Example 771, (2R)-2-[((5Sa)-5-{3-chloro-2-methyl-4-[2-(4-methylpiperazin-1-yl)ethoxy]phenyl}-6-{4-[(1-methyl-1H-pyrazol-5-yl)methoxy]phenyl}thieno[2,3-d]pyrimidin-4-yl)oxy]-3-(2-{[2-(2-methoxyphenyl)pyrimidin-4-yl]methoxy}phenyl)propanoic acid], the IC50 at Mcl-1 protein (setting [2]) came to 1.04e-09 M; in test [1] (MTT), 0.019 µM.

On to `COc1ccccc1-c1nccc(COc2ccccc2CC(Oc2ncnc3sc(-c4ccc(OCc5cccnc5)cc4)c(-c4ccc(OCCN5CCN(C)CC5)c(Cl)c4C)c23)C(=O)O)n1` [Example 772, (2R)-2-[((5Sa)-5-{3-chloro-2-methyl-4-[2-(4-methylpiperazin-1-yl)ethoxy]phenyl}-6-[4-(pyridin-3-ylmethoxy)phenyl]thieno[2,3-d]pyrimidin-4-yl)oxy]-3-(2-{[2-(2-methoxyphenyl)pyrimidin-4-yl]methoxy}phenyl)propanoic acid], for which the IC50 at Mcl-1 protein (setting [2]) was 9.48e-10 M; in test [1] (MTT), 0.01 µM.

Regarding `COc1ccccc1-c1nccc(COc2ccccc2CC(Oc2ncnc3sc(-c4ccc(OCc5cccc(C)c5)cc4)c(-c4ccc(OCCN5CCN(C)CC5)c(Cl)c4C)c23)C(=O)O)n1` [Example 773, (2R)-2-[((5Sa)-5-{3-chloro-2-methyl-4-[2-(4-methylpiperazin-1-yl)ethoxy]phenyl}-6-{4-[(3-methylbenzyl)oxy]phenyl}thieno[2,3-d]pyrimidin-4-yl)oxy]-3-(2-{[2-(2-methoxyphenyl)pyrimidin-4-yl]methoxy}phenyl)propanoic acid], the IC50 came out at 1.25e-09 M on Mcl-1 protein (setting [2]) and 0.017 µM in test [1] (MTT).

As for `COc1ccccc1-c1nccc(COc2ccccc2CC(Oc2ncnc3sc(-c4ccc(OCc5ccc(Cl)cc5)cc4)c(-c4ccc(OCCN5CCN(C)CC5)c(Cl)c4C)c23)C(=O)O)n1` [Example 775, (2R)-2-[(6-{4-[(4-chlorobenzyl)oxy]phenyl}-(5Sa)-5-{3-chloro-2-methyl-4-[2-(4-methylpiperazin-1-yl)ethoxy]phenyl}thieno[2,3-d]pyrimidin-4-yl)oxy]-3-(2-{[2-(2-methoxyphenyl)pyrimidin-4-yl]methoxy}phenyl)propanoic acid], the IC50 on Mcl-1 protein (setting [2]) came to 3.55e-09 M; in test [1] (MTT) it was 0.039 µM.

Consider `COc1ccccc1-c1nccc(COc2ccccc2CC(Oc2ncnc3sc(-c4ccc(OCc5ccn(C)n5)cc4)c(-c4ccc(OCCN5CCN(C)CC5)c(Cl)c4C)c23)C(=O)O)n1` [Example 776, (2R)-2-[((5Sa)-5-{3-chloro-2-methyl-4-[2-(4-methylpiperazin-1-yl)ethoxy]phenyl}-6-{4-[(1-methyl-1H-pyrazol-3-yl)methoxy]phenyl}thieno[2,3-d]pyrimidin-4-yl)oxy]-3-(2-{[2-(2-methoxyphenyl)pyrimidin-4-yl]methoxy}phenyl)propanoic acid], for which the results for the IC50 (at Mcl-1 protein (setting [2]); in test [1] (MTT)) were 9.48e-10 M and 0.007 µM, respectively.

For `COc1ccccc1-c1nccc(COc2ccccc2CC(Oc2ncnc3sc(-c4ccc(OCc5cccs5)cc4)c(-c4ccc(OCCN5CCN(C)CC5)c(Cl)c4C)c23)C(=O)O)n1` [Example 777, (2R)-2-[((5Sa)-5-{3-chloro-2-methyl-4-[2-(4-methylpiperazin-1-yl)ethoxy]phenyl}-6-[4-(thiophen-2-ylmethoxy)phenyl]thieno[2,3-d]pyrimidin-4-yl)oxy]-3-(2-{[2-(2-methoxyphenyl)pyrimidin-4-yl]methoxy}phenyl)propanoic acid], the IC50 on Mcl-1 protein (setting [2]) amounted to 1.12e-09 M; in test [1] (MTT) it was 0.008 µM.

Turning to `COc1ccccc1-c1nccc(COc2ccccc2CC(Oc2ncnc3sc(-c4ccc(OCc5ccsc5)cc4)c(-c4ccc(OCCN5CCN(C)CC5)c(Cl)c4C)c23)C(=O)O)n1` [Example 778, (2R)-2-[((5Sa)-5-{3-chloro-2-methyl-4-[2-(4-methylpiperazin-1-yl)ethoxy]phenyl}-6-[4-(thiophen-3-ylmethoxy)phenyl]thieno[2,3-d]pyrimidin-4-yl)oxy]-3-(2-{[2-(2-methoxyphenyl)pyrimidin-4-yl]methoxy}phenyl)propanoic acid], the values for the IC50 (on Mcl-1 protein (setting [2]); in test [1] (MTT)) were 1.09e-09 M and 0.013 µM, respectively.

Take `Cc1c(-c2c(-c3ccc(OCc4ccn(C)n4)cc3)sc3ncnc(OC(Cc4ccccc4OCc4ccnn4CC(F)(F)F)C(=O)O)c23)ccc(OCCN2CCN(C)CC2)c1Cl` [Example 779, (2R)-2-[((5Sa)-5-{3-chloro-2-methyl-4-[2-(4-methylpiperazin-1-yl)ethoxy]phenyl}-6-{4-[(1-methyl-1H-pyrazol-3-yl)methoxy]phenyl}thieno[2,3-d]pyrimidin-4-yl)oxy]-3-(2-{[1-(2,2,2-trifluoroethyl)-1H-pyrazol-5-yl]methoxy}phenyl)propanoic acid]: the IC50 at Mcl-1 protein (setting [2]) was found to be 1.86e-09 M; in test [1] (MTT), 0.056 µM.

Take `COc1ccccc1-c1nccc(COc2ccccc2CC(Oc2ncnc3sc(C#CCOc4ccccc4)c(-c4ccc(OCCN5CCN(C)CC5)c(Cl)c4C)c23)C(=O)O)n1` [Example 782, (2R)-2-{[(5Sa)-5-{3-chloro-2-methyl-4-[2-(4-methylpiperazin-1-yl)ethoxy]phenyl}-6-(3-phenoxyprop-1-yn-1-yl)thieno[2,3-d]pyrimidin-4-yl]oxy}-3-(2-{[2-(2-methoxyphenyl)pyrimidin-4-yl]methoxy}phenyl)propanoic acid]: the IC50 was 1.68e-09 M on Mcl-1 protein (setting [2]) and 0.057 µM in test [1] (MTT).

With `COc1ccccc1-c1nccc(COc2ccccc2CC(Oc2ncnc3sc(C#CCCCc4ccccc4)c(-c4ccc(OCCN5CCN(C)CC5)c(Cl)c4C)c23)C(=O)O)n1` [Example 783, (2R)-2-{[(5Sa)-5-{3-chloro-2-methyl-4-[2-(4-methylpiperazin-1-yl)ethoxy]phenyl}-6-(5-phenylpent-1-yn-1-yl)thieno[2,3-d]pyrimidin-4-yl]oxy}-3-(2-{[2-(2-methoxyphenyl)pyrimidin-4-yl]methoxy}phenyl)propanoic acid], the results for the IC50 (at Mcl-1 protein (setting [2]); in test [1] (MTT)) were 1.06e-09 M and 0.037 µM, respectively.

For the compound `COCC#Cc1sc2ncnc(OC(Cc3ccccc3OCc3ccnc(-c4ccccc4OC)n3)C(=O)O)c2c1-c1ccc(OCCN2CCN(C)CC2)c(Cl)c1C` [Example 784, (2R)-2-{[(5Sa)-5-{3-chloro-2-methyl-4-[2-(4-methylpiperazin-1-yl)ethoxy]phenyl}-6-(3-methoxyprop-1-yn-1-yl)thieno[2,3-d]pyrimidin-4-yl]oxy}-3-(2-{[2-(2-methoxyphenyl)pyrimidin-4-yl]methoxy}phenyl)propanoic acid], the IC50 at Mcl-1 protein (setting [2]) was determined as 9.48e-10 M; in test [1] (MTT), 0.023 µM.

`COc1ccccc1-c1nccc(COc2ccccc2CC(Oc2ncnc3sc(-c4ccc(F)cc4)c(-c4ccc(OCCN5CCN(C)CC5)c(Cl)c4C)c23)C(=O)Oc2ccc3c(c2)CCC3)n1` [Example 809, 2,3-dihydro-1H-inden-5-yl (2R)-2-{[(5Sa)-5-{3-chloro-2-methyl-4-[2-(4-methylpiperazin-1-yl)ethoxy]phenyl}-6-(4-fluorophenyl)thieno[2,3-d]pyrimidin-4-yl]oxy}-3-(2-{[2-(2-methoxyphenyl)pyrimidin-4-yl]methoxy}phenyl)propanoate]: the IC50 is 6.91e-07 M at Mcl-1 protein (setting [3]) and 0.047 µM in test [1] (cell viability).

With `COc1ccccc1-c1nccc(COc2ccccc2CC(Oc2ncnc3sc(-c4ccc(F)cc4)c(-c4ccc(OCCN5CCN(C)CC5)c(Cl)c4C)c23)C(=O)OCCN(C)C)n1` [Example 813, 2-(dimethylamino)ethyl (2R)-2-{[(5Sa)-5-{3-chloro-2-methyl-4-[2-(4-methylpiperazin-1-yl)ethoxy]phenyl}-6-(4-fluorophenyl)thieno[2,3-d]pyrimidin-4-yl]oxy}-3-(2-{[2-(2-methoxyphenyl)pyrimidin-4-yl]methoxy}phenyl)propanoate], the IC50 came to 5.47e-09 M on Mcl-1 protein (setting [3]) and 0.011 µM in test [1] (cell viability).

Turning to `Cc1c(-c2c(-c3ccc(F)cc3)sc3ncnc(OC(Cc4ccccc4OCc4ccnc(-c5ccccc5CO)n4)C(=O)O)c23)ccc(OCCN(C)C)c1Cl` [Example 832, (2R)-2-{[(5Sa)-5-{3-chloro-4-[2-(dimethylamino)ethoxy]-2-methylphenyl}-6-(4-fluorophenyl)thieno[2,3-d]pyrimidin-4-yl]oxy}-3-[2-({2-[2-(hydroxymethyl)phenyl]pyrimidin-4-yl}methoxy)phenyl]propanoic acid], the figures for the IC50 (on Mcl-1 protein (setting [3]); in test [1] (cell viability)) were 3.15e-09 M and 0.004 µM, respectively.

For the compound `COc1ccccc1-c1nccc(COc2ccccc2CC(Oc2ncnc3sc(-c4ccccc4F)c(-c4ccc(OCCN5CCN(C)CC5)c(Cl)c4C)c23)C(=O)O)n1` [Example 835, (2R)-2-{[(5Sa)-5-{3-chloro-2-methyl-4-[2-(4-methylpiperazin-1-yl)ethoxy]phenyl}-6-(2-fluorophenyl)thieno[2,3-d]pyrimidin-4-yl]oxy}-3-(2-{[2-(2-methoxyphenyl)pyrimidin-4-yl]methoxy}phenyl)propanoic acid], the IC50 at Mcl-1 protein (setting [3]) was found to be 2.9e-09 M; in test [1] (cell viability), 0.002 µM.
